Patent US12662473B2, “Inhibitors for programmed cell necrosis and preparation method therefor and use thereof” (SHANGHAI INSTITUTE OF ORGANIC CHEMISTRY, CHINESE ACADEMY OF …, priority 2019, dated 2026)
Where two headings read alike, the source gives them in different places.

Key:
FADD−/− Jurkat cells = assay: TNF-induced programmed cell necrosis inhibition, Cell Titer-Glo viability; format: cell-based; conditions: Homo sapiens, Jurkat
How it was run: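 FADD-deficient Jurkat cells (2.5×10^5/mL) were pretreated 1 h at 37 °C with compound plus Smac (50 nM as added), then stimulated with TNFα (50 ng/mL as added) for 14 h at 37 °C, 5% CO2. Viability was measured as ATP by CellTiter-Glo luminescence, with unstimulated DMSO wells as 100%. EC50 values were derived.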

L929 cells = assay: as above; format: cell-based, mouse; conditions: Mus musculus, read-out: EC50 inhibitory activity on programmed cell necrosis
How it was run: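 EC50 values come from CellTiter-Glo luminescence (cellular ATP), normalised to unstimulated DMSO wells as 100% viability. Mouse L929 fibroblasts had 1 h compound-plus-Smac pretreatment at 37 °C (Smac added as 500 nM solution), followed by 14 h TNFα challenge (added as 500 ng/mL solution).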

Structure (SMILES): Cc1noc([C@@H]2CCCN2C(=O)C(C)(C)Oc2ccc(Cl)cc2)n1 [QY-1-98]
- EC50 (FADD−/− Jurkat cells; 14 h, TNFa + SM164, read-out: EC50 inhibitory activity on programmed cell necrosis): 1530 nM
- EC50 (FADD−/− Jurkat cells; TNFa, read-out: EC50 inhibitory activity on programmed cell necrosis): 128 nM
- EC50 (L929 cells; L929, 14 h, L929 cells (mouse), TNFa + SM164): 1290 nM
- EC50 (L929 cells; L929, L929 cells (mouse), TNFa): 213 nM
